Values after ≈ are worked out from the molar mass of the structure shown. Values joined by “and” are separate entries in the source; they are usually repeats but may differ in a detail not shown here. Equal entries are not always repeated.
Columns and labels:
[1] = Amount of toxicant remaining in the test container after membrane diffusion raft tests; format: physicochemical; parameters: key: 0: empty or trace; +: some; + +: ample; details: after completion of membrane diffusion raft tests
From the text: (§1) A known quantity of the test compound is placed into a cylindrical plastic container whose open end is then covered with a membrane of known porosity; the complete unit is attached to the appropriate raft panel so that the poison can freely diffuse into the free water layer around it. Regular inspections, recording time and quantity of settlement, allow a life history of each membrane trial to be constructed. Each raft panel contains 35 compounds to be evaluated together with 4 standard poisons and 1 non-toxic membrane for control.
(§2) After the completion of membrane tests the contents of all containers are checked visually for poison loss. An empty container indicates an unacceptably high solubility for long term effectiveness; where the poison loss is low the compound is tested in one of two ways depending on its performance against fouling.
^b Amount of toxicants remaining in the test container after the
completion of the membrane diffusion raft tests: 0 = empty or trace, + =

barnacle = experiment: Membrane Diffusion Raft Trials, barnacle control; format: in vivo, barnacles; details: membrane test, average 15 to 16 weeks of immersion
From the text: (§3) 1). FIELD TESTS: - Membrane Diffusion Raft Trials
(§4) A specially constructed raft provides three types
(§5) a). Waterline Well illuminated, aerated
(§6) b). Flats Poorly illuminated deeper
as §1
(§7) The behavior on the raft can thus be compared with that of the standard poisons and the non-toxic control. At normal loading a membrane over the standard poisons would be free from macro-fouling after six months immersion. Compounds showing selective effects against restricted groups of fouling organisms also show up by membrane testing.
as §2
(§8) In the membrane tests, the results of approximately 140 compounds evaluated appear in Table 1. The symbols "0" means no detactable effect, the symbol "+" indicates the compound is active against the given fouling organism, and the symbol "++" means that the compound appears to be effective over at least about a four month period for essentially preventing fouling activity by the given organism. In the Table, "weed" designates a grass-like algal growth common in sea water.
(§9) Membrane Test results are of an average 15 to 16 weeks of immersion,
(§10) ^a 0 = none, + = some, + + = effective.
^f The 1975 Spring settlement of barnacles was very meager and the […]

weed = experiment: Membrane Diffusion Raft Trials, weed control; format: in vivo, grass-like algal growth common in sea water; details: membrane test, average 15 to 16 weeks of immersion
From the text: as §3, §4, §5, §6, §1, §7, §2, §8, §9, §10

[2] = Water solubility by UV spectrophotometric method; format: physicochemical; details: for solubility: water, saturated solution, Table 1, read-out: Solubility by UV method
Method: The water solubilities of several isothiazolones were determined by UV spectrophotometric measurements of saturated aqueous solution of each compound in comparison with measurement of solutions of carefully prepared known concentration as outlined in the following example.
DETERMINATION OF SOLUBILITY OF 5-CHLORO-2-(4-FLUOROPHENYL)-4-METHYL-3-ISOTHIAZOLONE OF EXAMPLE 115
A sample of 5-chloro-2-(4-fluorophenyl)-4-methyl-3-isothiazolone (0.0406 g., 1.67 × 10^-4 mole) was dissolved in 50 ml. of methanol. A 5 ml. aliquot of the solution was diluted to 1000 ml. with deionized water, providing a solution of 1.67 × 10^-5 moles/liter concentration. An ultraviolet spectrum of this solution was run using a 10 cm. cell. The absorbance (As) at the wave length of maximum absorption (279 nm.) was 1.208. The molar absorptivity, AM, was calculated from the relationship
where b and c are path length or cell thickness and concentration respectively. Thus, AM was [formula]
Another sample of the compound (0.3-0.5 g.) was stirred vigorously in 40 ml. of deionized water for approximately 72 hrs. to give a saturated solution. The mixture was filtered through very fine filter paper (Whatman No. 50) to remove all suspended solid. Small portions of the filtrate were diluted with water by various factors until an approximately mid-scale absorbance was obtained upon running an ultraviolet spectrum. Such an absorbance was obtained at a dilution of 10. The absorbance was 0.975 in a 10 cm. cell. Using the value for AM obtained earlier, in the equation

## O=c1ccsn1-c1ccccc1 [Example 11]
[1]
  Contents at the end of test (amount of toxicants remaining in the test container): 0
barnacle
  Barnacle Control: 0
weed
  Weed Control: 0

## Cc1cc(-n2sc(Cl)c(C)c2=O)ccc1Br [Example 133]
[1]
  Contents at the end of test (amount of toxicants remaining in the test container): + +
barnacle
  Barnacle Control: 0
weed
  Weed Control: 0

## CCCCCCCCCCCCn1scc(Br)c1=O [Example 50]
[1]
  Contents at the end of test (amount of toxicants remaining in the test container): + +
barnacle
  Barnacle Control: +
weed
  Weed Control: 0

## O=c1ccsn1CCc1ccc(Cl)cc1 [Example 9]
[1]
  Contents at the end of test (amount of toxicants remaining in the test container): 0
barnacle
  Barnacle Control: 0
weed
  Weed Control: 0

## O=c1c(Br)c(Cl)sn1CCc1ccc(Cl)cc1 [Example 92]
[1]
  Contents at the end of test (amount of toxicants remaining in the test container): +
barnacle
  Barnacle Control: 0
weed
  Weed Control: 0

## Cn1sc(Br)c(Br)c1=O [Example 94]
[1]
  Contents at the end of test (amount of toxicants remaining in the test container): 0
barnacle
  Barnacle Control: 0
weed
  Weed Control: +

## CC1CC(n2sc(Cl)cc2=O)CC(C)(C)C1 (stereo not drawn) [Example 28]
[2]
  solubility: 0.185 mg/mL (≈ 712 µM)

## CCCCC(CC)Cn1sc(Cl)c(C)c1=O (stereo not drawn) [Example 103]
[2]
  solubility: 0.102 mg/mL (≈ 390 µM)

## CC(C)(C)CC(C)(C)n1sc(Cl)cc1=O [Example 21]
[2]
  solubility: 0.2 mg/mL (≈ 807 µM)

## CC(C)CCCC(C)n1sc(Cl)cc1=O (stereo not drawn) [Example 19]
[2]
  solubility: 0.19 mg/mL (≈ 767 µM)

## Cc1c(Cl)sn(-c2ccc(C(F)(F)F)cc2)c1=O [Example 130]
[2]
  solubility: 0.007 mg/mL (≈ 23.8 µM)

## CCCCCCCCCCCCCCCCn1sc(Cl)cc1=O [Example 25]
[1]
  Contents at the end of test (amount of toxicants remaining in the test container): + +
barnacle
  Barnacle Control: 0
weed
  Weed Control: 0

## O=c1c(Br)csn1CCc1ccccc1 [Example 52]
[1]
  Contents at the end of test (amount of toxicants remaining in the test container): +
barnacle
  Barnacle Control: 0
weed
  Weed Control: 0

## O=c1c(Cl)c(Cl)sn1-c1cc(Cl)cc(Cl)c1 [Example 77]
[1]
  Contents at the end of test (amount of toxicants remaining in the test container): + +
barnacle
  Barnacle Control: 0
weed
  Weed Control: 0

## CCC(C)CC(CC)n1sc(Cl)c(Cl)c1=O (stereo not drawn) [Example 62]
[2]
  solubility: 0.085 mg/mL (≈ 301 µM)

## O=c1c(Br)csn1-c1ccc(Cl)cc1 [Example 54]
[1]
  Contents at the end of test (amount of toxicants remaining in the test container): + +
barnacle
  Barnacle Control: 0
weed
  Weed Control: 0

## Cc1c(Cl)sn(C)c1=O [Example 100]
[1]
  Contents at the end of test (amount of toxicants remaining in the test container): 0
barnacle
  Barnacle Control: 0
weed
  Weed Control: 0

## O=c1cc(Cl)sn1-c1ccc(Cl)c(Cl)c1 [Example 37]
[1]
  Contents at the end of test (amount of toxicants remaining in the test container): + +
barnacle
  Barnacle Control: +
weed
  Weed Control: +

## CC(c1ccccc1)n1sc(Cl)cc1=O (stereo not drawn) [Example 30]
[2]
  solubility: 0.42 mg/mL (≈ 1750 µM)

## Cc1ccc(-n2sc(Cl)c(C)c2=O)cc1 [Example 120]
[2]
  solubility: 0.06 mg/mL (≈ 250 µM)

## Cc1c(Cl)sn(-c2ccc(Cl)c(C(F)(F)F)c2)c1=O [Example 131]
[1]
  Contents at the end of test (amount of toxicants remaining in the test container): + +
barnacle
  Barnacle Control: 0
weed
  Weed Control: 0

## CCCCc1ccc(-n2sc(Cl)c(Cl)c2=O)cc1 [Example 83]
[1]
  Contents at the end of test (amount of toxicants remaining in the test container): + +
barnacle
  Barnacle Control: +
weed
  Weed Control: 0

## O=c1cc(Cl)sn1-c1ccc(Cl)c(C(F)(F)F)c1 [Example 40]
[1]
  Contents at the end of test (amount of toxicants remaining in the test container): + +
barnacle
  Barnacle Control: 0
weed
  Weed Control: +

## Cc1c(Cl)sn(-c2cc(Cl)cc(Cl)c2)c1=O [Example 136]
[2]
  solubility: 0.003 mg/mL (≈ 10.2 µM)

## Cc1c(Cl)sn(-c2cccc(C(F)(F)F)c2)c1=O [Example 129]
[2]
  solubility: 0.012 mg/mL (≈ 40.9 µM)

## Cc1csn(-c2ccc(Cl)c(Cl)c2)c1=O [Example 140]
[1]
  Contents at the end of test (amount of toxicants remaining in the test container): + +
barnacle
  Barnacle Control: 0
weed
  Weed Control: 0

## CCCCCCCCCCCCn1sc(Br)c(Br)c1=O [Example 97]
[1]
  Contents at the end of test (amount of toxicants remaining in the test container): + +
barnacle
  Barnacle Control: 0
weed
  Weed Control: 0

## CCCCCCCCCCCCn1sc(Cl)c(C)c1=O [Example 105]
[1]
  Contents at the end of test (amount of toxicants remaining in the test container): + +
barnacle
  Barnacle Control: +
weed
  Weed Control: 0

## CCCCCCCCCCn1sc(Br)c(Br)c1=O [Example 96]
[1]
  Contents at the end of test (amount of toxicants remaining in the test container): + +
barnacle
  Barnacle Control: 0
weed
  Weed Control: 0

## CCCCCCC(C)n1sc(Cl)c(Cl)c1=O (stereo not drawn) [Example 60]
[2]
  solubility: 0.05 mg/mL (≈ 177 µM)

## Cc1c(Cl)sn(-c2ccc(F)cc2)c1=O [Example 115, 5-chloro-2-(4-fluorophenyl)-4-methyl-3-isothiazolone]
[2]; deionized water, stirred approximately 72 hrs., UV, read-out: concentration of the saturated solution
  solubility thermodynamic at 72 h: 135 µM and 32.8 µg/mL
[2]; deionized water, stirred approximately 72 hrs., UV, read-out: solubility of this compound
  solubility at 72 h: 0.033 mg/mL (≈ 135 µM)
[2]
  solubility: 0.035 mg/mL (≈ 144 µM)

## O=c1c(Cl)c(Cl)sn1-c1ccc([N+](=O)[O-])cc1 [Example 82]
[1]
  Contents at the end of test (amount of toxicants remaining in the test container): + +
barnacle
  Barnacle Control: 0
weed
  Weed Control: 0

## CCCCCCC(C)n1sc(Cl)cc1=O (stereo not drawn) [Example 18]
[2]
  solubility: 0.175 mg/mL (≈ 706 µM)

## CCCCCCCCCCCCCCn1sc(Cl)c(C)c1=O [Example 106]
[1]
  Contents at the end of test (amount of toxicants remaining in the test container): + +
barnacle
  Barnacle Control: 0
weed
  Weed Control: 0

## O=c1c(Br)c(Cl)sn1C1CCCCC1 [Example 90]
[2]
  solubility: 0.045 mg/mL (≈ 152 µM)

## Cc1c(Cl)sn(-c2ccc(Cl)cc2Cl)c1=O [Example 135]
[2]
  solubility: 0.004 mg/mL (≈ 13.6 µM)

## CC(c1ccccc1)n1sc(Cl)c(Cl)c1=O (stereo not drawn) [Example 70]
[2]
  solubility: 0.05 mg/mL (≈ 182 µM)

## CC1CC(n2sc(Cl)c(Cl)c2=O)CC(C)(C)C1 (stereo not drawn) [Example 68]
[2]
  solubility: 0.045 mg/mL (≈ 153 µM)

## O=c1cc(Cl)sn1Cc1ccccc1 [Example 31]
[2]
  solubility: 0.39 mg/mL (≈ 1730 µM)

## CC(C)CCCC(C)n1sc(Cl)c(Cl)c1=O (stereo not drawn) [Example 61]
[2]
  solubility: 0.055 mg/mL (≈ 195 µM)

## CCCCCCCCn1sc(Br)c(C)c1=O [Example 102]
[1]
  Contents at the end of test (amount of toxicants remaining in the test container): 0
barnacle
  Barnacle Control: +
weed
  Weed Control: +

## Cc1ccc(-n2sc(Cl)c(Cl)c2=O)cc1Cl [Example 81]
[1]
  Contents at the end of test (amount of toxicants remaining in the test container): + +
barnacle
  Barnacle Control: 0
weed
  Weed Control: 0

## Cc1c(Cl)sn(-c2ccccc2Cl)c1=O [Example 112]
[2]
  solubility: 0.023 mg/mL (≈ 88.4 µM)

## Cc1csn(-c2cccc(Cl)c2)c1=O [Example 138]
[1]
  Contents at the end of test (amount of toxicants remaining in the test container): + +
barnacle
  Barnacle Control: 0
weed
  Weed Control: +

## CCCCCCCCCCCCCCCCCCn1sccc1=O [Example 8]
[1]
  Contents at the end of test (amount of toxicants remaining in the test container): + +
barnacle
  Barnacle Control: 0
weed
  Weed Control: 0

## CCCCCCCCCCCCCCn1sc(Cl)cc1=O [Example 24]
[1]
  Contents at the end of test (amount of toxicants remaining in the test container): + +
barnacle
  Barnacle Control: + +
weed
  Weed Control: 0

## CCCCCCCCCCn1sc(Cl)c(Br)c1=O [Example 89]
[1]
  Contents at the end of test (amount of toxicants remaining in the test container): + +
barnacle
  Barnacle Control: 0
weed
  Weed Control: 0

## Cc1c(Cl)sn(-c2ccc(Br)cc2)c1=O [Example 116]
[2]
  solubility: 0.007 mg/mL (≈ 23 µM)

## O=c1c(Cl)csn1Cc1ccc(Cl)cc1 [Example 46]
[1]
  Contents at the end of test (amount of toxicants remaining in the test container): + +
barnacle
  Barnacle Control: 0
weed
  Weed Control: +

## O=c1c(Cl)c(Cl)sn1-c1cccc(Cl)c1 [Example 76]
[1]
  Contents at the end of test (amount of toxicants remaining in the test container): + +
barnacle
  Barnacle Control: 0
weed
  Weed Control: +

## CCC(C)CC(CC)n1sc(Cl)cc1=O (stereo not drawn) [Example 20]
[2]
  solubility: 0.3 mg/mL (≈ 1210 µM)

## Cc1c(Cl)sn(-c2ccc(Oc3ccccc3)cc2)c1=O [Example 124]
[1]
  Contents at the end of test (amount of toxicants remaining in the test container): + +
barnacle
  Barnacle Control: 0
weed
  Weed Control: 0

From patent publication US4127687A, “Prevention of fouling of marine structures such as boat hulls” (Rohm and Haas Company, priority 1976, dated 1978)
